By IC50 is commonly meant the concentration that gives 50% inhibition. Read a high IC50 as a need for much substance. Broadly, the Ki is the equilibrium dissociation constant of an inhibitor or competing ligand from its target.

Test [1] deals with yeast alpha-glucosidase. The test can be described thus: Alpha-glucosidase inhibition assay. It counts as biochemical. Conditions: for IC50: yeast alpha-glucosidase. An excerpt:
Evaluation of the inhibitory activity of 1–12 against yeast alpha-glucosidase followed a previous procedure.[37]

For test [2], the system named is alpha-glucosidase. The test is described as follows: Kinetic study of alpha-glucosidase inhibition (Lineweaver–Burk plots). It counts as biochemical. How it is done: To examine the inhibition mechanism, activity at concentrations of 0, 3.61, 7.22, 14.44, and 28.88 μM of 2 was recorded. […] Increasing inhibitor concentrations cause a decrease in the Vmax of α-glucosidase.
The mechanisms of inhibition of alpha-glucosidase by 2 were determined by Lineweaver–Burk plots (Microsoft Excel 2010, Washington, USA), using methods similar to those reported in the literature.[40] Enzyme inhibition due to various concentrations of 2 was evaluated by monitoring the effects of different concentrations of the substrate. For Lineweaver–Burk double reciprocal plots 1/enzyme velocity (1/V) vs. 1/substrate concentration (1/[S]), the inhibition type was determined using various concentrations of pNPG (1 mM, 2 mM, and 4 mM) as a substrate in the presence of different concentrations of the test compound (0, 3.61, 7.22, 14.44, and 28.88 μM for 2). The experiments were carried out in three replicates. The mixtures were incubated at 37 °C, and the optical density was measured at 405 nm every 1 min for 30 min with the ELx800 Absorbance Microplate Reader (BioTek Instruments, Inc., Vermont, USA). The optimal concentrations of the tested compound were chosen based on the IC50 value. The inhibition constants were obtained graphically from secondary plots (Microsoft Excel 2010, Washington, USA).

Entries after “also recorded” stand apart in the source; their conditions may differ. A value given as a limit tells only on which side of the number the result lay.

In test [1], `Oc1cc2cc(c1O)Oc1ccc(cc1)CCc1cccc(O)c1Oc1cccc(c1)CC2` [Compound 1, Marchantin A] displayed an IC50 of 57.3 ± 1.9 µM.

As for `Oc1cccc2c1Oc1cccc(c1)CCc1cc(c(O)c(O)c1Br)Oc1ccc(cc1)CC2` [Compound 1a, 5′-Bromomarchantin A], in test [1] (qualitative statement), the “Alpha-glucosidase inhibition (in words)” value is reported as “weaker activity than the parent compound 1”. The molecule also registered an IC50 in test [1] of 151 ± 2.9 µM.

The molecule `Oc1ccc2cc1Oc1ccc(cc1)CCc1ccc(c(O)c1)-c1c(O)cccc1CC2` [Compound 2, Isoriccardin C] yielded an IC50 in test [1] of 28.9 ± 0.2 µM. The Type of inhibition result in test [2] (Lineweaver–Burk plots, same Km, decreasing Vmax) is given as “non-competitive inhibitor; also recorded: non-competitive type”. For the same molecule, in test [2] (pNPG substrate 1, 2, 4 mM, 37 °C, secondary plot of slope versus concentration, read-out: Ki (inhibition constant)), the Ki is 67.1 ± 1.28 µM.

In turn, `Oc1ccc2c(c1)CCc1ccc(cc1)Oc1cc(ccc1O)CCc1ccc-2c(O)c1` [Compound 3, Riccardin C] showed an IC50 in test [1] of 42.2 ± 1.4 µM.

In turn, `COC1Cc2cccc(c2)Oc2c(ccc(O)c2O)CCc2ccc(cc2)Oc2cc1cc(O)c2O` (stereo not drawn) [Compound 4, Marchantin K] returned an IC50 in test [1] of 131 ± 3 µM.

In turn, `Oc1ccc(CCc2cccc(O)c2)cc1` [Compound 5, Lunularin] showed an IC50 in test [1] of 130 ± 2 µM. `COc1cc(OC)c2c(c1)[C@@H](Cc1ccc(OC)c(OC)c1)OC2=O` [Compound 6, 3R-(3,4-Dimethoxybenzyl)-5,7-dimethoxyphthalide] returned an IC50 in test [1] greater than 200 µM. The same measure, in the same setting: then `COc1cc(OC)c2c(c1)[C@H](Cc1cc(OC)c(OC)c(OC)c1)OC2=O` [Compound 7, Marchatoside], with greater than 200 µM; and `CC1(C)CC[C@]2(C)CC[C@]3(C)C(=CCC4[C@@]5(C)CCC(=O)C(C)(C)C5CC[C@]43C)C2C1` (stereo partly drawn) [Compound 10, 12-Oleanene-3-one], with 75.1 ± 1.8 µM; and `C[C@@H]1CC[C@]2(C(=O)O)CC[C@]3(C)C(=CC(=O)C4[C@@]5(C)CCC(=O)C(C)(C)C5CC[C@]43C)C2[C@H]1C` (stereo partly drawn) [Compound 11, 3,11-Dioxoursolic acid], with 101 ± 3 µM. Still for that read-out and setting: then `C[C@H]1[C@H](C)CC[C@]2(C(=O)O)CC[C@]3(C)C(=CC[C@@H]4[C@@]5(C)CC[C@H](O)C(C)(C)[C@@H]5CC[C@]43C)[C@H]12` [Compound 12, Ursolic acid], with 86 ± 6.9 µM; and Vitexilactone [Compound 9], with greater than 200 µM.

For the origin of these results see article PMC10697071, “Bio-guided isolation of alpha-glucosidase inhibitory compounds from Vietnamese liverwort Marchantia polymorpha: in vitro and in silico studies” (RSC Advances, 2023).
